The text below walks through data of patent US20170290820A1, “METHODS AND COMPOSITIONS FOR TREATING BETA-THALASSEMIA AND SICKLE CELL DISEASE” (Academia Sinica, priority 2013, published 2017).

For one test, the system named is β globin. The test can be described thus: absolute quantitative RT-PCR, proportion of β globin mRNA. The test is classed as cell-based. The conditions noted are these: primary human erythroid cells, at IC50, 3 days; mock 88.8%. The procedure:
(§1) After 3 days of drug-treatment, the total RNA was extracted by RNA Spin mini kit (Ge-Healthcare) and reverse-transcription was performed by using superscript II (Invitrogen) followed the manufactors instruction. Quantitative PCR was performed on LightCycler with using STBR green master mix followed the manufactors instruction (Roche). The absolute quantitative RT-PCR was calculated by the standard curve with supplying a known copy number of plasmids. The relative quantitative RT-PCR was normalized to the expression levels of the β-actin and compared to the mock control.
(§2) To evaluate the specificity of S51021, SS-2394, HU, and NaB in mediating globin genes activation, the amounts of individual P3-liked globin mRNAs were measured by absolute quantitative RT-PCR.
(§3) The primary human erythroid cells were treated with HU (145.9 μM), NaB (221.6 μM), S51021 (21.8 μM) or SS2394 (2.3 μM) for 3 days, and the expression levels of each globin mRNA were estimated by absolute quantitative RT-PCR analysis. The proportions of individual 3-like globin chains among the total 3-like globin mRNA are shown. Data are presented as the mean±SEM, N=3.

A further test concerns histone H4. The test can be described thus: histone H4 acetylation by western blot. It is filed as cell-based, human. The conditions noted are these: FIG. 6; for global acetylation status of histone H4 (total acH4): at IC50, 3 days. From the text:
FIG. 6 is a graph showing the acetylation status of histone H4 in primary erythroid cells treating with HU, NaB, S51021 or SS-2394. […] Total histones were extracted by histone extraction buffer. Thirty microgram of histone extract was used for western blot analysis and immunobloted with antibody against histone H4 or acetylated histone H4. Lower panel: The signal intensity was quantified by an image-analyzing software. The intensity of mock control was set as 1. Data are shown as the mean±SEM, N=4.
After 3 days of compound treatment, total protein or histone of the drug-treated cells was extracted. Histone was extracted by histone extraction buffer (10 mM HEPES, 1.5 mM MgCl2, 10 mM KCl, 0.5 mM DTT, 1.5 mM PMSF and 0.2 N HCl) at 4° C. overnight then centrifuged at 13,000 rpm for 5 minutes and collected the supernatant. Thirty microgram of histone extracts were separated in 15% SDS-PAGE and blotted onto PVDF membrane. After blocking with 5% non-fat milk in TBST, the membrane was then incubated with primary antibody against total histone H4 or total acetyl histone H4 at 4° C. overnight. Total protein was extracted by modified RIPA (50 mM Tris-HCl pH7.8, 150 mM NaCl, 1% NP-40, 0.5% sodium deoxycholate, 0.1% SDS, 1 mM EGTA, 5 mM EDTA, 10 mM NaF, 1 mM NaV3O4 and 1× complete, EDTA-free Protease Inhibitor Cocktail). Thirty microgram of total protein extracts were separate by 10% SDS-PAGE and blotted onto PVDF membrane. After blocking with 5% non-fat milk in TBST, the membrane was incubated with primary antibody against BCL11A, p38, p-p38, γ-globin or β-actin at 4° C. overnight. […]
Several HDACi, such as NaB, apicidin, and TSA, have been reported to function as HbF-inducing agents. […] To realize whether the epigenetic modification of histone H4 is manipulated by S51021 or SS-2394 treatment, primary human adult erythroid cells were treated with S51021, SS-2394, HU, or NaB for 3 days, and the acetylation status of cellular histone H4 was then analyzed (FIG. 6).

Test [1] deals with primary human erythroid cells. Kind of test: AlamarBlue cell viability / proliferation assay. The conditions noted are these: Table 3; primary human erythroid cells, 3 days, proliferation reduced by 50%. On the technique in general: Resazurin is reduced to fluorescent resorufin, in cell work by metabolically active cells.
A further test concerns γ globin gene. The test can be described thus: γ globin gene induction by relative quantitative RT-PCR. The test is classed as cell-based, human. To be noted: for γ globin induction (IC50): Table 3, γ globin mRNA induction fold at the compound's IC50, 3 days. The procedure: as §1
To search for new agents, which are capable of inducing the expression of γ globin, a series of naphthalimide derivatives with various substituent(s) on the naphthalene ring and the heterocyclic N-atom (A1-A14, B1-B4, C1-C5, D1, and E1-E3, FIG. 2) were synthesized. These derivatives were subjected to evaluating the γ globin induction abilities in differentiated peripheral blood mononuclear cells (PBMCs). The PBMCs isolated from the peripheral blood of donors were expanded and differentiated for a total of 14 days in a two-phase liquid culture. The resulted primary erythoid cells were then treated with different dosages of naphthalimide derivatives individually for another 3 days. The expression levels of the endogenous γ globin gene were estimated by relative quantitative RT-PCR and the proliferation rates of these cells were examined by AlamarBlue cell viability assay. […]; 2-4.5-folds induction of the γ globin gene expression in the compounds-treated cells (FIG. 3).

The subject of another test is p38. The test can be described thus: p38 phosphorylation by western blot. The test is classed as cell-based, human. The conditions noted are these: FIG. 5; western blot p-p38/p38, at IC50. The procedure: FIG. 5 is a graph showing the phosphorylation status of p38 in primary erythroid cells treating with HU, NaB, S51021, or SS-2394. Upper panel: For detection of the phosphorylation status of p38, twenty microgram of total cell lysate extracted from the primary human erythroid cells treated with HU (145.9 μM), NaB (221.6 μM), S51021 (21.8 μM) or SS-2394 (2.3 μM) was analyzed by Western blot analysis using antibody against p-p38 or p38. Lower panel: The signal intensity was quantified by an image-analyzing software. The intensity of p-p38 levels of mock control cells was set as 1. Data are shown as the mean±SEM, N=5.
After 3 days of compound treatment, total protein or histone of the drug-treated cells was extracted. Histone was extracted by histone extraction buffer (10 mM HEPES, 1.5 mM MgCl2, 10 mM KCl, 0.5 mM DTT, 1.5 mM PMSF and 0.2 N HCl) at 4° C. overnight then centrifuged at 13,000 rpm for 5 minutes and collected the supernatant. Thirty microgram of histone extracts were separated in 15% SDS-PAGE and blotted onto PVDF membrane. After blocking with 5% non-fat milk in TBST, the membrane was then incubated with primary antibody against total histone H4 or total acetyl histone H4 at 4° C. overnight. […]

A further test relates to γ globin. The test can be described thus: absolute quantitative RT-PCR, proportion of γ globin mRNA. The test is classed as cell-based. The conditions noted are these: primary human erythroid cells, at IC50, 3 days; mock 7.9%. The method, then:
as §1, §2, §3

In a further test the test system is δ globin. Kind of test: absolute quantitative RT-PCR, proportion of δ globin mRNA. The conditions noted are these: primary human erythroid cells, at IC50, 3 days; mock 3.3%. It is filed as cell-based. The procedure:
as §1, §2, §3

In general, IC50 refers to the point on the concentration scale where inhibition reaches its midpoint. For `NC(=O)NO` [HU, hydroxyurea], the “β globin proportion of total β-like globin mRNA” value in the test with β globin is 84.2 ± 1.3%. Moreover, in the test with histone H4, the “histone deacetylase inhibitor or not (conclusion from acH4)” value was “not histone deacetylase inhibitors” and the “global acetylation status of histone H4 (total acH4)” value is reported as “not dramatically alternated”. Besides, the concentration for half-maximal inhibition (IC50) in test [1] was determined as 146 µM. Moreover, the “γ globin induction (IC50)” value with γ globin gene came to 2.3 fold. For the same compound, the “EC (μM) induction of HU IC50 (2.3 fold)” value with γ globin gene (concentration inducing γ globin gene expression 2.3-fold, primary human erythroid cells) was 145.9 µM. Also, in the test with p38, the “phosphorylation level of p38” value is given as “significantly increased”. In the test with γ globin, the “γ globin proportion of total β-like globin mRNA” value is given as 11.2 ± 1.1%. In addition, the “δ globin proportion of total β-like globin mRNA” value in the test with δ globin was determined as 4.5 ± 0.2%.
In the case of `CCCC(=O)[O-].[Na+]` [NaB, sodium butyrate], the “β globin proportion of total β-like globin mRNA” value in the test with β globin was 87.4 ± 1.0%. In addition, the “global acetylation status of histone H4 (total acH4)” value in the test with histone H4 was “significantly enhanced”. The compound also displayed an IC50 in test [1] of 222 µM. The “expression level of γ globin mRNA” value in the test with γ globin gene (FIG. 4A, at IC50, 3 days, relative to mock) is “not”. The “γ globin induction (IC50)” value in the test on γ globin gene was determined as 1.3 fold. Moreover, in the test on p38, the “phosphorylation level of p38” value is “significantly increased”. For the same compound, in the test with γ globin, the “γ globin proportion of total β-like globin mRNA” value was 10.8 ± 1.0%. Further, the “δ globin proportion of total β-like globin mRNA” value in the test on δ globin is recorded as 1.8 ± 0.1%.
